Tests used:
mGlu7 [1] = tested on: mGlu7; design: method as in PMID 16339898; conditions: known reference compound, agonist/PAM; cited from earlier work
mGlu7 [2] = tested on: mGlu7; design: method as in PMID 17609420; conditions: known reference compound, allosteric antagonist/NAM; cited from earlier work
mGlu7 receptor = biological target: T1, mGlu7 receptor (Homo sapiens, UniProt Q14831); experiment: mGlu7 PAM assay (Ca2+ response, concentration response); format: cell-based; conditions: confirmed hits of virtual screening; for EC50: concentration response, read-out: mGlu7 PAM pEC50 (converted)
T1 construct: expressed in transfected cells; host or cells: HEK 293 cells
T1 sequence (Q14831 35-915): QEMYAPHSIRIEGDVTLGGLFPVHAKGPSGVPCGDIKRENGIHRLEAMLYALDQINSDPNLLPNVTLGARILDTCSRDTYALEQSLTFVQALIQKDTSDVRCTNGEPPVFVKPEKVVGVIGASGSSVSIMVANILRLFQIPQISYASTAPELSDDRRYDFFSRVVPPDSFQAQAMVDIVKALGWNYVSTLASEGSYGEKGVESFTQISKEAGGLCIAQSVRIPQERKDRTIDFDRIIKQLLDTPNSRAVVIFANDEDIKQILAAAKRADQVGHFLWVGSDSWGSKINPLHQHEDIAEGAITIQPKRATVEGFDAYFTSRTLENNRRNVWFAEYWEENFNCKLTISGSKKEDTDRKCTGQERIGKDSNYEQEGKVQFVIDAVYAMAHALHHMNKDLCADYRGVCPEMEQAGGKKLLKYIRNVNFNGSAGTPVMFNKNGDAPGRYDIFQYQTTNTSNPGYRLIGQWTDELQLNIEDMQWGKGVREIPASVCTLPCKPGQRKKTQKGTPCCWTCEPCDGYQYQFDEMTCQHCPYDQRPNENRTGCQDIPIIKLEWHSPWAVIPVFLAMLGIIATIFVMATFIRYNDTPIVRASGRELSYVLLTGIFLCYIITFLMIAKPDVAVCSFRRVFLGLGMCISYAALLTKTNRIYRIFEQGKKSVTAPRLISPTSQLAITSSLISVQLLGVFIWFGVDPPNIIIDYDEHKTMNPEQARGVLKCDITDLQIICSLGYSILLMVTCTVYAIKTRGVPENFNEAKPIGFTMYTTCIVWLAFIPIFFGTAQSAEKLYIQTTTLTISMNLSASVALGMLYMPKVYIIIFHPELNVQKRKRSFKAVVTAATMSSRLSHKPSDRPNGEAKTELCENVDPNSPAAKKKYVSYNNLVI

mGlu1 to mGlu8 receptor = experiment: mGlu receptor panel selectivity assays (activation or inactivation); format: cell-based; conditions: up to concentration cutoffs of 10 μM
Procedure: Active hits from the VS were sourced from the Janssen corporate compound collection, no new synthesis was performed at this time, and batch purity information is provided in the Supporting Information (Table S5). The selectivity of the hits 1 to 4 was assessed by in vitro screening in the same panel of mGlu1 to mGlu8 receptor activation or inactivation assays.
(§1) Method for selectivity assays mGlu receptor panel selectivity assays: Ca2+ assays with human mGlu1, 3, 5, 7, or 8 receptor expressing HEK 293 cells were performed as reported in Lavreysen et al. (2013), except for a slight change in the procedure for mGlu5: cells expressing the human mGlu5 receptor were seeded at 40,000 cells/well in MW384. TwentyEfour hours after seeding, cells were incubated for 90 min in Ca2+ assay kit (Molecular Devices) dissolved in saline PBS supplemented with 5 mmol/L probenecid, pH 7.4 (f.c. 2.5 mmol/L probenecid as loading buffer was added on the cell layer without removal of medium) before measurements. Measurement of [35S]GTPγS binding to membranes from CHO cells expressing the rat mGlu6 receptor and membranes from L929sA cells expressing the human mGlu4 receptor were conducted also as described in Lavreysen et al.
(§2) Lavreysen H, et al. Pharmacological Characterization of JNJE40068782, a New Potent, Selective, and Systemically Active Positive Allosteric Modulator of the mGlu2 Receptor and Its

mGlu4 = biological target: T2, mGlu4 (Homo sapiens, UniProt Q14833); experiment: mGlu4 agonism assay ([35S]GTPγS binding to membranes); format: biochemical; conditions: selectivity panel; read-out: pEC50 in mGlu4 agonism assay (converted)
T2 construct: expressed in transfected cells; host or cells: L929sA cells (membranes)
T2 sequence (Q14833 33-912): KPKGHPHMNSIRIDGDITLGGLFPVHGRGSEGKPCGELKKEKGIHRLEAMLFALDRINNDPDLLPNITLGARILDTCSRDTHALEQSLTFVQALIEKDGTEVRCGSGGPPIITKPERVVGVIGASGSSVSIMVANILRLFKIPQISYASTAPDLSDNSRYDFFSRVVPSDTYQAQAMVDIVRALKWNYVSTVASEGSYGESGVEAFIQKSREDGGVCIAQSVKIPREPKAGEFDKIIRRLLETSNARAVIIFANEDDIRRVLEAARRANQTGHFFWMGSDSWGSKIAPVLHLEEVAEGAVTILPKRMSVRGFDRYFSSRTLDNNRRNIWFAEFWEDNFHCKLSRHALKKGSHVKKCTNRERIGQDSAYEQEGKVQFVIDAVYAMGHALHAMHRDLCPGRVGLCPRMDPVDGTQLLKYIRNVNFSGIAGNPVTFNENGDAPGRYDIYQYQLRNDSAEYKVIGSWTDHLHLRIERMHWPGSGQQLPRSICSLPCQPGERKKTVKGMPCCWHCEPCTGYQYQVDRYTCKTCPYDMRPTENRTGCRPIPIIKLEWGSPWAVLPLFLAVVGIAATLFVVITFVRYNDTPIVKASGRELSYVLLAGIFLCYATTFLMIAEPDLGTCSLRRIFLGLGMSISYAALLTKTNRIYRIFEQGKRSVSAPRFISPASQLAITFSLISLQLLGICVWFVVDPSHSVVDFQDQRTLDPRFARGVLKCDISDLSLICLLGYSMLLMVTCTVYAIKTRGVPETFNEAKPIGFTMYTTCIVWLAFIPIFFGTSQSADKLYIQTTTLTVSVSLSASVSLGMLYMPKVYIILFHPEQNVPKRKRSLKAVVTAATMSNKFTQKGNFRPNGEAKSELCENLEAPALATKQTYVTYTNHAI
Procedure: as §1, §2

Row | SMILES | Emax (mGlu7 receptor) | EC50 (mGlu7 receptor) | activity in panel of mGlu1 to mGlu8 receptor activation or inactivation assays (mGlu1 to mGlu8 receptor) | other results
1 | c1ccc(C(NCCNC(c2ccccc2)c2ccccc2)c2ccccc2)cc1 [AMN-082] |  |  |  | PAM activity reported in cAMP and Ca2+ assays (mGlu7 [1]): Active PAM reported in cAMP but not Ca2+ assays
2 | COc1ccc(-c2cc3onc(-c4ccncc4)c3c(=O)n2C)cc1 [MMPIP] |  |  |  | mGlu7-ant pIC50 (mGlu7 [2]): 7
3 | COc1cc(F)cc(COc2ccc(C(=O)N[C@H](C)C(C)(C)C)cn2)c1 [compound 1] | 86% | 12.6 µM | No activity | 
4 | COc1c(F)cccc1COc1ccc(C(=O)N[C@H](C)C(C)(C)C)cn1 [compound 2] | 103% | 12.6 µM | No activity | 
5 | CNC(=O)N1CCCC(CN2CCC(OC(c3ccccc3)c3ccccc3)CC2)C1 (stereo not shown) [compound 3] |  |  |  | EC50 (mGlu4): 0.631 µM
6 | CC(C)(C)OC(=O)N1CCc2ccc(-n3cc(-c4ccncc4)cn3)cc2CC1 [compound 4] | 57% | 31.6 µM | No activity | 
7 | COc1ccc(CN2CCc3c(nc(N4CCC(C)CC4)[nH]c3=O)C2)cc1 [compound 5] | 99% | 15.8 µM |  | 
8 | CC1CCN(c2nc(-c3ccncc3)nc3cnccc23)CC1 [compound 6] | 65% | > 30.2 µM |  | 

Source: publication PMC5755953, “Identification of Allosteric Modulators of Metabotropic Glutamate 7 Receptor Using Proteochemometric Modeling” (Journal of Chemical Information and Modeling, 2017)
